Our source for the relative viability values is the supplement of paper PMC10307832.

Assay in all cases: relative viability (nuclei count vs DMSO), 5 days (fraction); higher = more cells survive
Compound in one assay: CCOC(=O)CCNc1cc(N2CCc3ccccc3CC2)nc(-c2ccccn2)n1 [GSK-J4]
In a few lines: (§1)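 MetaXpress counted nuclei in 4× images of lung cancer cell lines that had been fixed, permeabilised and Hoechst-stained in one step. Before that, cells in 1536-well plates were kept overnight at 37 °C, pinned with five √10-spaced library-drug doses on vehicle-anchored plates, and cultured 5 days without medium change. Viability takes treated-well nuclei over vehicle-well nuclei and uses the median across plates. Plates were accepted only at control CV below 25% and at least one doubling.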

Compound in the next assay: CN1CCC(CC1)OC2=CC(=C(C=C2)NC3=NC=C4C(=N3)N(C(=O)N4C)C5CCCC5)OC [AZ3146]
In outline:
as §1

Compound in the assay “AZ3146 + Navitoclax”: CN1CCC(CC1)OC2=CC(=C(C=C2)NC3=NC=C4C(=N3)N(C(=O)N4C)C5CCCC5)OC [AZ3146] + CC1(C)CCC(c2ccc(Cl)cc2)=C(CN2CCN(c3ccc(C(=O)NS(=O)(=O)c4ccc(N[C@H](CCN5CCOCC5)CSc5ccccc5)c(S(=O)(=O)C(F)(F)F)c4)cc3)CC2)C1 [Navitoclax] (partner 0.5 µM)
In outline:
(§2)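 Cells from lung cancer lines were seeded into 1536-well plates and, one day later, dosed by pin tool. Treatments were either a single drug or a fixed dose of an anchor drug with five library-drug doses (not always all listed) in √10 steps. After 5 days, nuclei were stained in a one-step fixation (final 0.05% Triton X-100, 1% formaldehyde, 1 ug/ml Hoechst) and counted on 4× images, and relative viability is the treated-to-vehicle nuclei ratio, as the median of duplicate plates.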

Compound in the assay “GSK-J4 + Trametinib”: CCOC(=O)CCNc1cc(N2CCc3ccccc3CC2)nc(-c2ccccn2)n1 [GSK-J4] + CC(=O)Nc1cccc(-n2c(=O)n(C3CC3)c(=O)c3c(Nc4ccc(I)cc4F)n(C)c(=O)c(C)c32)c1 [Trametinib] (partner 0.02 µM)
In outline: as §2

For the cell line NCI-H1993, the relative viability was found to be 1.13 with GSK-J4 (0.5 µM); 1.09 with GSK-J4 (1.581 µM); 1.08 with GSK-J4 (5 µM); 0.756 with GSK-J4 (15.81 µM); 0.533 in the assay with GSK-J4 (50 µM); 0.926 in the assay with AZ3146 (0.08 µM). Besides, the relative viability in the assay with AZ3146 (0.253 µM) stood at 0.843; in the assay with AZ3146 (0.8 µM), 1; with AZ3146 (2.53 µM), 1.03; with AZ3146 (8 µM), 0.489; with AZ3146 + Navitoclax (first compound 0.08 µM) it was 0.972; with AZ3146 + Navitoclax (first compound 0.253 µM), 0.935. Further, the relative viability is 0.993 with AZ3146 + Navitoclax (first compound 0.8 µM); 0.929 in the assay with AZ3146 + Navitoclax (first compound 2.53 µM); 0.898 in the assay with AZ3146 + Navitoclax (first compound 8 µM); 0.514 in the assay with GSK-J4 + Trametinib (first compound 0.5 µM); 0.504 with GSK-J4 + Trametinib (first compound 1.581 µM); 0.497 in the assay with GSK-J4 + Trametinib (first compound 5 µM). For the same cell line, the relative viability in the assay with GSK-J4 + Trametinib (first compound 15.81 µM) was determined as 0.544; in the assay with GSK-J4 + Trametinib (first compound 50 µM), 0.532.
For NCI-H322M, the relative viability with GSK-J4 (0.5 µM) stood at 1.05; with GSK-J4 (1.581 µM), 1.04; with GSK-J4 (5 µM) it was 1.1; in the assay with GSK-J4 (15.81 µM), 0.839; with GSK-J4 (50 µM) it was 0.818; with AZ3146 (0.08 µM), 0.872. In addition, the relative viability in the assay with AZ3146 (0.253 µM) was 0.927; with AZ3146 (0.8 µM), 0.823; in the assay with AZ3146 (2.53 µM), 0.958; in the assay with AZ3146 (8 µM) it was 0.827; in the assay with AZ3146 + Navitoclax (first compound 0.08 µM) it was 1.24; with AZ3146 + Navitoclax (first compound 0.253 µM), 1.12. Moreover, the relative viability amounted to 1.1 with AZ3146 + Navitoclax (first compound 0.8 µM); 1.24 in the assay with AZ3146 + Navitoclax (first compound 2.53 µM); 1.23 with AZ3146 + Navitoclax (first compound 8 µM); 0.513 in the assay with GSK-J4 + Trametinib (first compound 0.5 µM); 0.482 with GSK-J4 + Trametinib (first compound 1.581 µM); 0.623 in the assay with GSK-J4 + Trametinib (first compound 5 µM). Moreover, the relative viability came to 0.457 with GSK-J4 + Trametinib (first compound 15.81 µM) and 0.503 with GSK-J4 + Trametinib (first compound 50 µM).
As for NCI-H460, the relative viability with GSK-J4 (0.5 µM) is 0.957; in the assay with GSK-J4 (1.581 µM), 0.8; with GSK-J4 (5 µM), 0.767; with GSK-J4 (15.81 µM), 0.981; with GSK-J4 (50 µM), 1.01; with AZ3146 (0.08 µM), 0.94. Moreover, the relative viability in the assay with AZ3146 (0.253 µM) worked out at 1.01; in the assay with AZ3146 (0.8 µM), 1.02; in the assay with AZ3146 (2.53 µM), 0.997; with AZ3146 (8 µM), 0.78; in the assay with AZ3146 + Navitoclax (first compound 0.08 µM) it was 1.1; with AZ3146 + Navitoclax (first compound 0.253 µM) it was 1.21. The relative viability with AZ3146 + Navitoclax (first compound 0.8 µM) came out at 1.14; in the assay with AZ3146 + Navitoclax (first compound 2.53 µM), 1.08; with AZ3146 + Navitoclax (first compound 8 µM), 0.298; with GSK-J4 + Trametinib (first compound 0.5 µM), 0.258; with GSK-J4 + Trametinib (first compound 5 µM) it was 0.143; in the assay with GSK-J4 + Trametinib (first compound 15.81 µM), 0.0717. Also, the relative viability with GSK-J4 + Trametinib (first compound 50 µM) came to 0.0851.
As to NCI-H1395, the relative viability in the assay with GSK-J4 (0.5 µM) was found to be 1.05; in the assay with GSK-J4 (1.581 µM), 0.893; with GSK-J4 (5 µM) it was 0.827; with GSK-J4 (15.81 µM), 0.964; with GSK-J4 (50 µM), 0.81; with AZ3146 (0.08 µM), 0.958. Besides, the relative viability with AZ3146 (0.253 µM) was found to be 0.879; with AZ3146 (0.8 µM), 0.86; with AZ3146 (2.53 µM) it was 0.985; with AZ3146 (8 µM), 0.85; with AZ3146 + Navitoclax (first compound 0.08 µM) it was 1.21; with AZ3146 + Navitoclax (first compound 0.253 µM), 0.924. The relative viability with AZ3146 + Navitoclax (first compound 0.8 µM) is 0.985; with AZ3146 + Navitoclax (first compound 2.53 µM), 1.09; with AZ3146 + Navitoclax (first compound 8 µM) it was 1.18; with GSK-J4 + Trametinib (first compound 0.5 µM), 1.04; with GSK-J4 + Trametinib (first compound 1.581 µM) it was 0.919; in the assay with GSK-J4 + Trametinib (first compound 5 µM), 1.02. The figures for the relative viability with GSK-J4 + Trametinib (first compound 15.81 µM) and with GSK-J4 + Trametinib (first compound 50 µM) were 0.806 and 0.854, respectively.
